# “Also recorded” adds a separate entry of the source.
# What was measured:
# Format in all cases: cell-based, human
# HCT116 and SW480 cells = assay: Transwell invasion assay; conditions: HCT116 and SW480, Matrigel transwell, 48 h; n = 3 independent experiments
# Procedure: To investigate the effect of secreted GREM1 on CRC cells, an in vitro GREM1 secretion system was established using HEK293 cells. Stably GREM1-expressing cells (pcDNA3.1-GREM1) and empty-vector transfected cells (pcDNA3.1) were cultured in DMEM/F12 medium with 10% FBS until 40% confluence. After complete removal of the normal culture medium, HEK293-GREM1 and HEK293-Vec cells were continuously cultured in DMEM/F12 medium without FBS for 5 days before medium collection. GREM1 or Vector conditioned medium (GREM1-CM/Vec-CM) was then centrifuged at 1000 rpm for 30 min and the supernatant was collected for further study.
# Cells (1 × 10^5) were seeded in serum-free medium in the Matrigel-coated (Corning, 354480) transwell chambers (24-well insert, 8-µm pore size; BD Biosciences) for invasion experiments. The lower chamber was filled with RPMI1640 or DMEM containing 20% FBS. The migration of HCT116 and SW480 cells was measured in three random visual fields and quantified by microscopy after 48 h of incubation, followed by staining with DAPI or crystal violet. The invasive capacity of the cells was assessed using ImageJ software for quantification.
# SNAI1 promoter = assay: ChIP–qPCR, SMAD2/3/4 binding to SNAI1 promoter; conditions: SW480 cells, SB505124 10 µM, 24 h, n = 3 independent experiments
# Procedure: (§1) SW480 cells were starved in DMEM with 1% FCS overnight before treatment with vehicle, 10 µM SB505124 for 24 h. Cells were fixed in 1% paraformaldehyde for 10 min at RT for DNA-protein cross-linking, followed by quenching with glycine. Cross-linking chromatin was prepared using the SimpleChIP® Enzymatic Chromatin IP Kit (CST, 9002) according to the manufacturer’s instructions. For immunoprecipitation, 10 µg chromatin was incubated with 10 µL anti-histone H3 rabbit IgG (CST, 14269, positive control), 2 µL normal Rabbit IgG (CST, 2729) or 5 µL anti-SMAD2/3 rabbit IgG (CST, 8685) at 4 °C overnight. 2% chromatin prior to immunoprecipitation was used as input. Chromatin-protein-antibody complex was captured by protein G magnetic beads, and chromatin was released by reversal of cross-links and purified using the SimpleChIP® Enzymatic Chromatin IP Kit (CST, 9002) according to the manufacturer’s instructions. DNA was quantified by qPCR with primers targeting predicted SMAD2/3/4 binding regions on GREM1 or SNAI1 promoters. DNA levels were normalized to the input, and the fold-change of enrichment was calculated over the control. ChIP–qPCR primers are listed in Supplementary Table 2.
# GREM1 promoter = assay: ChIP–qPCR, SMAD2/3/4 binding to GREM1 promoter; conditions: SW480 cells, SB505124 10 µM, 24 h, n = 3 independent experiments
# Procedure: as §1
# SW480 cells = assay: GREM1 expression in SW480 cells after rhGREM1, RT–qPCR; conditions: n = 3 biological replicates
# Procedure: Total RNA was extracted using Trizol reagent (Invitrogen, 15596026). According to the instructions, cDNA was generated using the PrimeScript RT reagent Kit with gDNA Eraser (Accurate Biology, AG11706). The SYBR Green Premix Pro Taq HS qPCR Kit (Accurate Biology, AG11701) was then used to quantify mRNA expression according to the manufacturer’s instructions. All results were calculated using the 2^−ΔΔCt method. Primers used in the study are listed in Supplementary Table 1.
smiles,measurement,setting,value
Cc1cccc(-c2[nH]c(C(C)(C)C)nc2-c2ccc3c(c2)OCO3)n1 [SB505124],"GREM1-CM-induced invasion, effect of inhibitor",HCT116 and SW480 cells,abolished; also recorded: significantly reduced
same,SMAD2/3/4 binding to SNAI1 promoter −787 site,SNAI1 promoter,significantly decreased this binding
same,SMAD2/3/4 binding to GREM1 promoter −733 and −612 sites,GREM1 promoter,significantly reduced this binding
same,"rhGREM1-induced GREM1 expression, effect of inhibitor",SW480 cells,completely reversed the effect of rhGREM1

# From PMC13371181, “A paracrine-to-autocrine shunt of GREM1 fuels colorectal cancer metastasis via ACVR1C” (Molecular Cancer, 2026)
